# According to US10000499B2, “Methyl diazepane orexin receptor antagonists” (MERCK SHARP & DOHME CORP., priority 2014, dated 2018):
# Read-outs that look alike come from different tables or passages of the source.
# Experiments:
# rat orexin-1 receptor = target: T1, rat orexin-1 receptor (Rattus norvegicus, UniProt P56718); assay: FLIPR Ca2+ flux assay, OX1R; format: cell-based; settings: CHO cells expressing rat orexin-1 receptor; agonist 70 pM Ala-6,12 orexin-A
# T1 construct: expressed in transfected cells; host or cells: CHO cells (grown under G418 selection)
# T1 sequence (P56718 1-416): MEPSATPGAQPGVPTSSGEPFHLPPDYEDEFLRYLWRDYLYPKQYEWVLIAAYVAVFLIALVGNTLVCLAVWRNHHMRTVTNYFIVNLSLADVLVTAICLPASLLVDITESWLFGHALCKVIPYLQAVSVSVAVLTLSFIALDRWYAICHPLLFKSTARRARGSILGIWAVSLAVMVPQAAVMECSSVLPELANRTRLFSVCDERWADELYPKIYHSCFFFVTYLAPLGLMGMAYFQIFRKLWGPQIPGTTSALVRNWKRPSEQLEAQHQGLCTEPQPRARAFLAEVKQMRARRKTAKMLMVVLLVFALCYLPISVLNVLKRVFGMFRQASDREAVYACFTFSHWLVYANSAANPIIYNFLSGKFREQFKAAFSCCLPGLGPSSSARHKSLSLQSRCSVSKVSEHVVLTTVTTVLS
# Protocol: (§1) For intracellular calcium measurements, Chinese hamster ovary (CHO) cells expressing the rat orexin-1 receptor or the human orexin-2 receptor, are grown in Iscove's modified DMEM containing 2 mM L-glutamine, […], 1% hypoxanthine-thymidine supplement, 100 U/ml penicillin, 100 μg/ml streptomycin and 10% heat-inactivated fetal calf serum (FCS). The cells are seeded at 20,000 cells/well into Becton-Dickinson black 384-well clear bottom sterile plates coated with poly-D-lysine. All reagents were from GIBCO-Invitrogen Corp. The seeded plates are incubated overnight at 37° C. and 5% CO2. Ala-6,12 human orexin-A as the agonist is prepared as a 1 mM stock solution in 1% bovine serum albumin (BSA) and diluted in assay buffer (HBSS containing 20 mM HEPES, 0.1% BSA and 2.5 mM probenecid, pH7.4) for use in the assay at a final concentration of 70 pM. Test compounds are prepared as 10 mM stock solution in DMSO, then diluted in 384-well plates, first in DMSO, then assay buffer. On the day of the assay, cells are washed 3 times with 100 μl assay buffer and then incubated for 60 min (37° C., 5% CO2) in 60 μl assay buffer containing 1 μM Fluo-4AM ester, 0.02% pluronic acid, and 1% BSA, The dye loading solution is then aspirated and cells are washed 3 times with 100 μl assay buffer, 30 μl of that same buffer is left in each well. Within the Fluorescent Imaging Plate Reader (FLIPR, Molecular Devices), test compounds are added to the plate in a volume of 25 μl, incubated for 5 min and finally 25 μl of agonist is added. Fluorescence is measured for each well at 1 second intervals for 5 minutes and the height of each fluorescence peak is compared to the height of the fluorescence peak induced by 70 pM Ala-6,12 orexin-A with buffer in place of antagonist. […] The intrinsic orexin receptor antagonist activity of a compound which may be used in the present invention may be determined by these assays.
# human orexin-2 receptor = target: T2, human orexin-2 receptor (Homo sapiens, UniProt O43614); assay: FLIPR Ca2+ flux assay, OX2R; format: cell-based; settings: for Fold Selective: OX2R over OX1R, from FLIPR values
# T2 construct: expressed in transfected cells; host or cells: CHO cells (grown under G418 selection)
# T2 sequence (O43614 1-444): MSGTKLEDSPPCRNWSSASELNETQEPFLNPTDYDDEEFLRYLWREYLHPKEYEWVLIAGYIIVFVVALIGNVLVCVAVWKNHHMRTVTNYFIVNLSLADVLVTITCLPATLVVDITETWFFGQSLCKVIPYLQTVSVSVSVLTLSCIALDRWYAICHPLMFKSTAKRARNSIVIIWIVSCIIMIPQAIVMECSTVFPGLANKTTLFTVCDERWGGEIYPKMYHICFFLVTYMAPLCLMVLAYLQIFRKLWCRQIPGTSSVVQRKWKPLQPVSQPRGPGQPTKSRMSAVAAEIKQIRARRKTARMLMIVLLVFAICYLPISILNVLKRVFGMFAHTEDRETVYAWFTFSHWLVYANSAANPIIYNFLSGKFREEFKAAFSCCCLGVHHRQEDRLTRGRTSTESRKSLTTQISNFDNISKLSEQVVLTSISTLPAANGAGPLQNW
# Protocol: as §1
# [1] = CHO cells expressing human orexin-2 receptor, agonist 70 pM Ala-6,12 orexin-A, read-out: OX2R FLIPR
Structure (SMILES),IC50 (rat orexin-1 receptor) [nM],IC50 (human orexin-2 receptor; [1]) [nM],Fold Selective (human orexin-2 receptor),IC50 (human orexin-2 receptor) [nM],"selectivity between orexin-2 receptor and orexin-1 receptor (in words) (human orexin-2 receptor; comparison with diazepane compounds of U.S. Pat. No. 8,685,961)"
"C[C@@H]1CCN(c2cccc(N3CCN(C)C3=O)n2)CCN1C(=O)c1cccc(F)c1-n1nccn1 [Example 14, 1-{6-[(5R)-4-{[3-fluoro-2-(2H-1,2,3-triazol-2-yl)phenyl]carbonyl}-5-methyl-1,4-diazepan-1-yl]pyridin-2-yl}-3-methylimidazolidin-2-one]",3180,58,55,–,–
"C[C@@H]1CCN(c2nccn3ccnc23)CCN1C(=O)c1ccccc1C1CC1 [Example 23, 8-{(5R)-4-[(2-cyclopropylphenyl)carbonyl]-5-methyl-1,4-diazepan-1-yl}imidazo[1,2-a]pyrazine]",> 10000,29,344,–,–
"COc1ccnc(N2CC[C@@H](C)N(C(=O)c3ccccc3C3(C#N)CC3)CC2)c1 [Example 4, 1-(2-{[(7R)-4-(4-methoxypyridin-2-yl)-7-methyl-1,4-diazepan-1-yl]carbonyl}phenyl)cyclopropane-carbonitrile]",> 10000,163,61,–,–
"CCC(=O)N(C)c1cccc(N2CC[C@@H](C)N(C(=O)c3ccccc3-n3nccn3)CC2)n1 [Example 10, (R)-N-(6-(4-(2-(2H-1,2,3-triazol-2-yl)benzoyl)-5-methyl-1,4-diazepan-1-yl)pyridin-2-yl)-N-methylpropionamide]",> 10000,–,–,–,–
"COc1ccnc(N2CC[C@@H](C)N(C(=O)c3ccccc3C3CC3)CC2)c1 [Example 9, (5R)-4-[(2-cyclopropylphenyl)carbonyl]-1-(4-methoxypyridin-2-yl)-5-methyl-1,4-diazepane]",> 10000,125,80,–,–
"C[C@@H]1CCN(c2nccn3ccnc23)CCN1C(=O)c1ccccc1-n1nccn1 [Example 22, 8-[(5R)-5-methyl-4-{[2-(2H-1,2,3-triazol-2-yl)phenyl]carbonyl}-1,4-diazepan-1-yl]imidazo[1,2-a]pyrazine]",> 10000,50,200,–,–
"C[C@@H]1CCN(c2nccn3nccc23)CCN1C(=O)c1ccccc1-n1nccn1 [Example 24, 4-[(5R)-5-methyl-4-{[2-(2H-1,2,3-triazol-2-yl)phenyl]carbonyl}-1,4-diazepan-1-yl]pyrazolo[1,5-a]pyrazine]",> 10000,113,88,–,–
"COc1ccnc(N2CC[C@@H](C)N(C(=O)c3ccccc3-n3nccn3)CC2)c1 [Example 2, (R)-(2-(2H-1,2,3-triazol-2-yl)phenyl)(4-(4-methoxypyridin-2-yl)-7-methyl-1,4-diazepan-1-yl)methanone]",2590,45,57,–,–
"COc1ccnc(N2CC[C@@H](C)N(C(=O)c3cccnc3OCC(F)(F)F)CC2)c1 [Example 7, (5R)-1-(4-methoxypyridin-2-yl)-5-methyl-4-{[2-(2,2,2-trifluoroethoxy)pyridin-3-yl]carbonyl}-1,4-diazepane]",> 10000,92,108,–,–
"CCN(C(C)=O)c1cccc(N2CC[C@@H](C)N(C(=O)c3ccccc3-n3nccn3)CC2)n1 [Example 13, N-ethyl-N-{6-[(5R)-5-methyl-4-{[2-(2H-1,2,3-triazol-2-yl)phenyl]carbonyl}-1,4-diazepan-1-yl]pyridin-2-yl}acetamide]",> 10000,67,149,–,–
"Cc1ccnc(N2CC[C@@H](C)N(C(=O)c3ccccc3-n3nccn3)CC2)c1 [Example 1, (R)-(2-(2H-1,2,3-triazol-2-yl)phenyl)(7-methyl-4-(4-methylpyridin-2-yl)-1,4-diazepan-1-yl)methanone]",> 10000,–,68,147,–
"Cc1ccc(-n2nccn2)c(C(=O)N2CCCN(c3nc4ccccc4o3)CC2)c1 [Example B-3, reference compound]",–,–,–,–,greater selectivity for the orexin-1 receptor than for the orexin-2 receptor
